From ChEMBL document CHEMBL1201862, “PubChem BioAssay data set” (2004)
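48-hour exposure; five concentrations; linearly interpolated endpoints. Here, GI50 denotes the concentration required for 50% inhibition of growth.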 Calls of active or inactive are those of the source. Rule as the data show it: active = GI50 up to about 1.1 µM and inactive = higher.

Legend:
Test in all cases: growth of human tumour cells (NCI), 48 h
NCI-H23 = tested on: NCI-H23
Hs-578T = tested on: Hs-578T
HOP-92 = tested on: HOP-92
NCI-H460 = tested on: NCI-H460
NCI/ADR-RES = tested on: NCI/ADR-RES
SR = tested on: SR
M14 = tested on: M14
SK-MEL-5 = tested on: SK-MEL-5
SN12C = tested on: SN12C
COLO 205 = tested on: COLO 205
EKVX = tested on: EKVX
A498 = tested on: A498
MDA-MB-435 = tested on: MDA-MB-435
MCF7 = tested on: MCF7
ACHN = tested on: ACHN
SNB-19 = tested on: SNB-19
LOX IMVI = tested on: LOX IMVI
KM12 = tested on: KM12
SNB-75 = tested on: SNB-75
U-251 = tested on: U-251

Row | SMILES | GI50 (NCI-H23) | GI50 (Hs-578T) | GI50 (HOP-92) | GI50 (NCI-H460) | GI50 (NCI/ADR-RES) | GI50 (SR) | GI50 (M14) | GI50 (SK-MEL-5) | GI50 (SN12C) | GI50 (COLO 205) | GI50 (EKVX) | GI50 (A498) | GI50 (MDA-MB-435) | GI50 (MCF7) | GI50 (ACHN) | GI50 (SNB-19) | GI50 (LOX IMVI) | GI50 (KM12) | GI50 (SNB-75) | GI50 (U-251)
1 | COc1c(CC=C(C)C)c(O)c(C(CC(C)C)c2c(O)c(C(C)=O)c(O)c3c2OC(C(C)(C)O)C3)c(O)c1C(C)=O (configuration not stated) [ACROFOLIONE A] | 3.75 µM (inactive) | 7.74 µM (inactive) | 1.85 µM (inactive) | 4.13 µM (inactive) | 3.82 µM (inactive) | 2.82 µM (inactive) | 5.56 µM (inactive) | 3.41 µM (inactive) | 3.84 µM (inactive) | 4.46 µM (inactive) | 4.51 µM (inactive) | 3.83 µM (inactive) | 4.86 µM (inactive) | 4.26 µM (inactive) | 4.31 µM (inactive) | 7.33 µM (inactive) | 4.38 µM (inactive) |  |  | 
2 | N#Cc1c(=O)c2ccccc2n2c1[nH]c1ccccc12 | 55.2 µM (inactive) | 20.9 µM (inactive) |  | 37 µM (inactive) | 15.3 µM (inactive) | 0.618 µM (active) | 57.5 µM (inactive) |  | 32.3 µM (inactive) | 43.1 µM (inactive) | 25 µM (inactive) | 25.1 µM (inactive) | 54 µM (inactive) | 56.2 µM (inactive) | 58.6 µM (inactive) | 42.5 µM (inactive) | 20.6 µM (inactive) | 27.4 µM (inactive) | 43.1 µM (inactive) | 34.1 µM (inactive)
3 | CC1(C)CCCC2CC2CCC(C)(C)C1=O (configuration not stated) | > 100 µM (inactive) | > 100 µM (inactive) | 74.8 µM (inactive) | 34.8 µM (inactive) | 28.8 µM (inactive) | 10.8 µM (inactive) | 42 µM (inactive) | 42.9 µM (inactive) | 71 µM (inactive) | 18.5 µM (inactive) | 57.9 µM (inactive) | > 100 µM (inactive) | 39.5 µM (inactive) | 18.3 µM (inactive) | > 100 µM (inactive) | > 100 µM (inactive) | 27.5 µM (inactive) | 56.2 µM (inactive) | 71 µM (inactive) | 19.1 µM (inactive)
4 | CCCCCCNCCc1c[nH]cn1 | > 100 µM (inactive) | > 100 µM (inactive) | > 100 µM (inactive) | > 100 µM (inactive) | > 100 µM (inactive) | > 100 µM (inactive) | > 100 µM (inactive) | > 100 µM (inactive) | > 100 µM (inactive) | > 100 µM (inactive) | > 100 µM (inactive) | > 100 µM (inactive) | > 100 µM (inactive) | > 100 µM (inactive) | > 100 µM (inactive) | > 100 µM (inactive) | > 100 µM (inactive) | > 100 µM (inactive) | > 100 µM (inactive) | > 100 µM (inactive)
5 | CC(=O)Nn1c(=S)[nH]c2ccccc21 | > 100 µM (inactive) | > 100 µM (inactive) | > 100 µM (inactive) | > 100 µM (inactive) | > 100 µM (inactive) | > 100 µM (inactive) | > 100 µM (inactive) | > 100 µM (inactive) | > 100 µM (inactive) | > 100 µM (inactive) | > 100 µM (inactive) | > 100 µM (inactive) | > 100 µM (inactive) | > 100 µM (inactive) | > 100 µM (inactive) | > 100 µM (inactive) | > 100 µM (inactive) | > 100 µM (inactive) |  | > 100 µM (inactive)
6 | CC(=O)NC1C(OCc2ccccc2)OC(CO)C(O)C1OCC(=O)NC(C)C(=O)NC(CCC(=O)NCCCCNc1ccc([N+](=O)[O-])c2[nH]c3ccccc3c(=O)c12)C(N)=O (configuration not stated) | > 100 µM (inactive) | 29.6 µM (inactive) | > 100 µM (inactive) | 68.5 µM (inactive) | > 100 µM (inactive) | 2.87 µM (inactive) | 71.1 µM (inactive) |  | > 100 µM (inactive) | > 100 µM (inactive) | 88.5 µM (inactive) | > 100 µM (inactive) | > 100 µM (inactive) | > 100 µM (inactive) | 48.9 µM (inactive) | 36.7 µM (inactive) | > 100 µM (inactive) | 90.2 µM (inactive) | 43.9 µM (inactive) | 79.1 µM (inactive)
7 | N#Cc1c(N2CCOCC2)[nH]c(=O)c(C(c2c(Cl)cccc2Cl)c2c(O)c(C#N)c(N3CCOCC3)[nH]c2=O)c1O | 16.2 µM (inactive) | 19.5 µM (inactive) | 18 µM (inactive) | > 100 µM (inactive) | 27.4 µM (inactive) | 5.89 µM (inactive) | 17.9 µM (inactive) | 16.6 µM (inactive) | 20.1 µM (inactive) | 13.8 µM (inactive) | 18.3 µM (inactive) | 34.5 µM (inactive) | 16.6 µM (inactive) | 16.7 µM (inactive) | 16.1 µM (inactive) | 16.1 µM (inactive) | 13 µM (inactive) | 16.1 µM (inactive) |  | 16.7 µM (inactive)
8 | O=c1c2c([N+](=O)[O-])cccc2nc2[nH]c3ccccc3n12 | 32.9 µM (inactive) | 26.5 µM (inactive) | 19.8 µM (inactive) | 20.9 µM (inactive) | 26.4 µM (inactive) | 54.2 µM (inactive) | > 75 µM (inactive) | 35 µM (inactive) | 25.6 µM (inactive) | 40.7 µM (inactive) | 30.2 µM (inactive) | 26.6 µM (inactive) | > 75 µM (inactive) | 20.4 µM (inactive) | 13.9 µM (inactive) | 30.9 µM (inactive) | 32.8 µM (inactive) | 32.4 µM (inactive) |  | 20.2 µM (inactive)
9 | Cc1onc(-c2c(F)cccc2Cl)c1C(=O)N[C@@H]1C(=O)N2[C@@H]1SC(C)(C)[C@@H]2C(=O)O | > 100 µM (inactive) | 44 µM (inactive) | > 100 µM (inactive) | > 100 µM (inactive) | > 100 µM (inactive) | > 100 µM (inactive) | > 100 µM (inactive) | > 100 µM (inactive) | > 100 µM (inactive) | > 100 µM (inactive) | > 100 µM (inactive) | > 100 µM (inactive) | > 100 µM (inactive) | > 100 µM (inactive) | > 100 µM (inactive) | > 100 µM (inactive) |  | > 100 µM (inactive) | > 100 µM (inactive) | > 100 µM (inactive)
10 | Nc1ccc(-c2nc3ccccc3s2)cc1I | 64.9 µM (inactive) | > 100 µM (inactive) |  | 38.5 µM (inactive) | > 100 µM (inactive) | 42 µM (inactive) | 81.8 µM (inactive) | 58.7 µM (inactive) | 35.6 µM (inactive) | 36 µM (inactive) | 14.9 µM (inactive) | 28.6 µM (inactive) | 97.9 µM (inactive) | < 0.0116 µM (active) | > 87.1 µM (inactive) | 54.2 µM (inactive) | 44.8 µM (inactive) | 52.5 µM (inactive) | 41.9 µM (inactive) | 34.4 µM (inactive)
11 | CCc1c(CN)c(CC)c(CNC2=NCCN2)c(CC)c1CNC1=NCCN1 | > 100 µM (inactive) | > 100 µM (inactive) | > 100 µM (inactive) | > 100 µM (inactive) | > 100 µM (inactive) | > 100 µM (inactive) | > 100 µM (inactive) | > 100 µM (inactive) | > 100 µM (inactive) | > 100 µM (inactive) | > 100 µM (inactive) | > 100 µM (inactive) | > 100 µM (inactive) | > 100 µM (inactive) | > 100 µM (inactive) | > 100 µM (inactive) |  | > 100 µM (inactive) | > 100 µM (inactive) | > 100 µM (inactive)
12 | CCOC(=O)C(NC(=O)CC)(Nc1ccc(F)c(Cl)c1)C(F)(F)F (configuration not stated) |  | > 100 µM (inactive) | > 100 µM (inactive) | > 100 µM (inactive) | 78.2 µM (inactive) | > 45.6 µM (inactive) | 40.5 µM (inactive) | > 67.6 µM (inactive) | > 100 µM (inactive) | > 100 µM (inactive) | > 100 µM (inactive) | > 100 µM (inactive) | > 92.9 µM (inactive) | > 100 µM (inactive) | > 55.8 µM (inactive) | > 100 µM (inactive) |  | 35.8 µM (inactive) | > 100 µM (inactive) | > 100 µM (inactive)
13 | O=C1NC(=S)N/C1=C\c1cc2c(=O)c3ccccc3sc2s1 | 52.8 µM (inactive) | 64.6 µM (inactive) |  | 64 µM (inactive) | > 100 µM (inactive) | 22.8 µM (inactive) |  | > 100 µM (inactive) | > 100 µM (inactive) | 47.4 µM (inactive) | 3.51 µM (inactive) | > 100 µM (inactive) | > 100 µM (inactive) | 35.8 µM (inactive) | 60.8 µM (inactive) | 33.4 µM (inactive) | 59.7 µM (inactive) | > 100 µM (inactive) | 26.4 µM (inactive) | 30.7 µM (inactive)
14 | NC(=O)Cc1ncn(-c2ccccc2)n1 | > 100 µM (inactive) | > 100 µM (inactive) | > 100 µM (inactive) |  | > 100 µM (inactive) | > 100 µM (inactive) | > 100 µM (inactive) | > 100 µM (inactive) | > 100 µM (inactive) | > 100 µM (inactive) | > 100 µM (inactive) | > 100 µM (inactive) | > 100 µM (inactive) | > 100 µM (inactive) | > 100 µM (inactive) | > 100 µM (inactive) | > 100 µM (inactive) | > 100 µM (inactive) | > 100 µM (inactive) | 
